The target in test [1] is T1, 5HT2C receptors (Homo sapiens, UniProt P28335).
T1 sequence (P28335 33-458): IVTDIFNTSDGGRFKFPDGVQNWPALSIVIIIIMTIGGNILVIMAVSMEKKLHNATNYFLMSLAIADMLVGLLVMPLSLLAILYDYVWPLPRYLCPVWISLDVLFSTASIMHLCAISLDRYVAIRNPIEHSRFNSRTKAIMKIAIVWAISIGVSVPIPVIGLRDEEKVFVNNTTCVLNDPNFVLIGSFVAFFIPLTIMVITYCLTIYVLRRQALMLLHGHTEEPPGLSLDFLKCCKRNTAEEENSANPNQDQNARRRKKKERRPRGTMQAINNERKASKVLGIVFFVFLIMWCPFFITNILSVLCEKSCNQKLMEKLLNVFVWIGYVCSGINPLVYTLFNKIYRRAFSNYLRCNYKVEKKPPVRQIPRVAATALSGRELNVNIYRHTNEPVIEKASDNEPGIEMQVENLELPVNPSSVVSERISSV
The test is described as follows: Human 5-HT2C functional assay in 1321N1 cells (intracellular calcium, FLIPR). The arrangement: expressed in transfected cells; host or cells: 1321N1 cells. Type of test: cell-based. Particulars: for EC50: 1321N1 cells stably transfected, maximum calcium response, read-out: EC50 (μM), 5-HT2c Agonist Activity; for Emax: 1321N1 cells, percentage relative to the effect of serotonin, read-out: Emax (%), 5-HT2c Agonist Activity. As to the method: (ii) Human 5-HT2C Functional Assay in 1321N1 Cells
Functional activity was determined by testing the effect of the compounds on intracellular calcium levels in 1321N1 cells stably transfected with the human 5-HT2C receptor. Cells were seeded into 96-well plates at 50,000 cells/well and grown overnight in tissue culture medium (DMEM with Glutamax I (Invitrogen), containing 10% dFCS, 50 μg/mL Gentamicin, 400 μg/mL Geneticin) at 37° C. and 7% CO2. Growth medium was replaced by medium without dFCS for overnight incubation. Cells were loaded with a fluorescent calcium-sensitive dye in the presence of 1% probenicid according to the manufacturer's protocol (Fluo4 AM, Molecular Devices). Serial compound dilutions (final concentrations 10^−10 to 10^−5 M) were added to the cells either alone or in the presence of serotonin (10^−9 M) and the maximum calcium response was determined using a FLIPR instrument (Molecular Devices). Concentration-response curves were fitted using a four-parameter logistic equation (GraphPad Prism). The concentration at which the compound exerts half its maximal effect is named the ‘effective concentration 50’ or ‘EC50’ and is listed in Table 2.
Emax is the maximum functional response or efficacy expressed as a percentage relative to the effect of serotonin.
(In general: Calcium assays in cells follow changes in intracellular calcium, usually with a dye or a luminescent sensor.)

In test [2] the target is T2, human serotonin 5-HT2c receptor (Homo sapiens, UniProt P28335).
T2 construct: expressed in transfected cells; host or cells: CHO cells (membrane homogenate)
T2 sequence (P28335 33-458): T1 sequence (P28335 33-458)
The test can be described thus: Human 5-HT2C receptor radioligand binding assay (agonist site, [125I](±)DOI). Particulars: membranes of transfected CHO cells, 0.2 nM [125I](±)DOI, 15 minutes at 37° C. On the procedure:
To determine the effectiveness of compounds having a formula (I), these compounds can be evaluated in a radioligand binding assay for the agonist site of the human serotonin 5-HT2c receptor or in vitro models of cellular function.
(i) Human 5-HT2C Receptor Radioligand Binding Assay
Affinity of compounds for the agonist site of the 5-HT2c receptor in transfected CHO cells was determined in a radioligand binding assay essentially as described by Bryant, H. U., et al., Life Sciences (1996) 59(15), 1259-1268.

In test [3] the target is T1, 5HT2C receptors. The test is described as follows: Human 5-HT2C functional assay in CHO-K1 cells (calcium flux, FLIPR). In kind it is cell-based. Particulars: for Emax: percentage relative to the effect of serotonin. The arrangement: expressed in transfected cells; host or cells: CHO-K1 cells. The essentials:
(§1)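 Frozen CHO-K1 cells over-expressing receptor, serum-starved overnight, loaded with Ca4 dye plus 2.5 mM probenecid for 60 min at room temperature. FLIPR fluorescence (ex 480/em 530 nm, 25° C) recorded 3 min after compound addition; 6-point 1:10 series from 10 μM, 0.2% DMSO. Response normalized to serotonin, 4-parameter fit gives EC50; Emax as % of serotonin.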

Another test deals with T3, 5HT2B receptors (Homo sapiens, UniProt P41595).
T3 construct: expressed in transfected cells; host or cells: CHO-K1 cells
The test can be described thus: Human 5-HT2B functional assay in CHO-K1 cells (calcium flux, FLIPR). In kind it is cell-based. Particulars: for Emax: CHO-K1, read-out: Emax (%), 5-HT2B Agonist Activity. An outline of the steps: as §1

The mark [4] stands for this setting: CHO-K1, read-out: Emax (%), 5-HT2c Agonist Activity, CHO-K1 cells.

Like-named read-outs stand apart in the source and are kept apart here.

T3 sequence (P41595 whole entry): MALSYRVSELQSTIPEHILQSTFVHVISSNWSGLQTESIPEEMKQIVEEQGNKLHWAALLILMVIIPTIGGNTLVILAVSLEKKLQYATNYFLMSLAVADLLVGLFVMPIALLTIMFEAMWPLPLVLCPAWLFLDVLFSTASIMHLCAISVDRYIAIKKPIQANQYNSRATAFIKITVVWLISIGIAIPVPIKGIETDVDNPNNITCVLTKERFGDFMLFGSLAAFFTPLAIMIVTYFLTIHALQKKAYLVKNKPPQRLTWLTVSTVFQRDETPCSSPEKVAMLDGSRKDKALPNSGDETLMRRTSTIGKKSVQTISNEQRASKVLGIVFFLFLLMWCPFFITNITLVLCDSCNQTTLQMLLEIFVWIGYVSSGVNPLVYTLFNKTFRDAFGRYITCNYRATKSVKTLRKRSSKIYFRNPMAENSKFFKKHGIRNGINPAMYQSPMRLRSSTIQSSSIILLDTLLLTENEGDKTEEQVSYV

A word on the EC50: it is the midpoint of the concentration-response curve. A word on the Emax: it is the size of the effect at its maximum, as opposed to the concentration needed. The Ki is a dissociation constant, usually derived from enzyme kinetics or from competition with a known ligand. Consider `O=C1CC2CNCCN2c2cc(F)ccc2N1` (stereo not drawn) [Example 35, 10-fluoro-1,2,3,4,4a,5-hexahydropyrazino[1,2-a][1,5]benzodiazepin-6(7H)-one], for which the half-maximal effective concentration (EC50) at 5HT2C receptors [1] is 0.052 µM; on 5HT2C receptors [3], 0.02 µM; at 5HT2B receptors, 0.6 µM. Also, the figures for the Emax at 5HT2C receptors [1], on 5HT2C receptors [3] (setting [4]) and at 5HT2B receptors were 100%, over 120% and 80%, respectively. Further, the affinity in test [2] corresponds to a Ki of 0.11 µM.

With `CN1CCN2c3ccccc3NC(=O)CC2C1` (stereo not drawn) [Example 38, 3-methyl-1,2,3,4,4a,5-hexahydropyrazino[1,2-a][1,5]benzodiazepin-6(7H)-one], the 50% effective concentration (EC50) on 5HT2C receptors [1] was 0.0663 µM; at 5HT2C receptors [3], 0.08 µM; on 5HT2B receptors, over 10 µM. Further, the Emax at 5HT2C receptors [1] is 68%; on 5HT2C receptors [3] (setting [4]), 100%. In test [2], the inhibition constant Ki turned out to be 0.2 µM.

On to `CCOc1ccc2c(c1)N1CCNCC1CC(=O)N2` (stereo not drawn) [Example 44, 10-ethoxy-1,2,3,4,4a,5-hexahydropyrazino[1,2-a][1,5]benzodiazepin-6(7H)-one], for which the half-maximal effective concentration (EC50) at 5HT2C receptors [1] is 0.0445 µM; on 5HT2C receptors [3] (CHO-K1 cells over-expressing 5HT2C, calcium flux, read-out: EC50 (μM), 5-HT2c Agonist Activity), 0.03 µM; at 5HT2B receptors (CHO-K1 cells over-expressing 5HT2B, calcium flux, read-out: EC50 (μM), 5-HT2B Agonist Activity) it was over 10 µM. Further, the Emax was 90% on 5HT2C receptors [1] and over 120% at 5HT2C receptors [3] (CHO-K1 cells, read-out: Emax (%), 5-HT2c Agonist Activity). Also, the Ki in test [2] is 0.15 µM.

Regarding `O=C1CC2CNCCN2c2cccc(F)c2N1` (stereo not drawn) [Example 32, 8-fluoro-1,2,3,4,4a,5-hexahydropyrazino[1,2-a][1,5]benzodiazepin-6(7H)-one], the EC50 is 0.0258 µM at 5HT2C receptors [1], 0.008 µM at 5HT2C receptors [3] and over 10 µM at 5HT2B receptors. The results for the maximal response (Emax) at 5HT2C receptors [1] and on 5HT2C receptors [3] (setting [4]) were 102% and 100%, respectively. For the same compound, affinity in test [2] was put at a Ki of 0.042 µM.

Consider `Cc1ccc2c(c1)N1CCNC[C@@H]1CC(=O)N2` [Example 36, (4aS)-10-methyl-1,2,3,4,4a,5-hexahydropyrazino[1,2-a][1,5]benzodiazepin-6(7H)-one], for which the 50% effective concentration (EC50) is 0.0015 µM on 5HT2C receptors [1], 0.002 µM on 5HT2C receptors [3] and 0.008 µM on 5HT2B receptors. Moreover, the results for the Emax at 5HT2C receptors [1], on 5HT2C receptors [3] (setting [4]) and on 5HT2B receptors were 104%, over 120% and 100%, respectively. Further, affinity in test [2] was put at a Ki of 0.0091 µM.

`O=C1C[C@H]2CNCCN2c2cc(Cl)c(Cl)cc2N1` [Example 37, (4aS)-9,10-dichloro-1,2,3,4,4a,5-hexahydropyrazino[1,2-a][1,5]benzodiazepin-6(7H)-one]: the EC50 on 5HT2C receptors [1] came out at 0.0032 µM; on 5HT2C receptors [3] it was 0.0008 µM; on 5HT2B receptors it was 0.003 µM. Also, the Emax on 5HT2C receptors [1] is 99.5%; on 5HT2C receptors [3] (setting [4]), 100%; at 5HT2B receptors, 100%. Also, in test [2], affinity was put at a Ki of 0.014 µM.

For the compound `COc1ccc2c(c1)N1CCNC[C@@H]1CC(=O)N2` [Example 43, (4aS)-10-methoxy-1,2,3,4,4a,5-hexahydropyrazino[1,2-a][1,5]benzodiazepin-6(7H)-one], the EC50 on 5HT2C receptors [1] worked out at 0.0138 µM; on 5HT2C receptors [3] it was 0.01 µM; at 5HT2B receptors it was 0.06 µM. The Emax is 86% on 5HT2C receptors [1], over 120% on 5HT2C receptors [3] (setting [4]) and 80% at 5HT2B receptors. The Ki in test [2] was found to be 0.066 µM.

Turning to `Brc1ccc2c(c1)NCCC1CNCCN21` (stereo not drawn) [Example 19, 9-bromo-1,2,3,4,4a,5,6,7-octahydropyrazino[1,2-a][1,5]benzodiazepine], the results for the concentration giving a half-maximal response (EC50) on 5HT2C receptors [1], on 5HT2C receptors [3] and on 5HT2B receptors were 0.0283 µM, 0.02 µM and over 10 µM, respectively. Also, the Emax on 5HT2C receptors [1] was 85.5%; on 5HT2C receptors [3] (setting [4]) it was over 120%. For the same compound, in test [2], the affinity corresponds to a Ki of 0.14 µM.

On to `O=C1NCC2CNCCN2c2ccccc21` (stereo not drawn) [Example 46, 2,3,4,4a,5,6-hexahydropyrazino[1,2-a][1,4]benzodiazepin-7(1H)-one], for which the EC50 is 0.0059 µM at 5HT2C receptors [1], 0.008 µM on 5HT2C receptors [3] and 0.3 µM at 5HT2B receptors. In addition, the values for the maximum response (Emax) at 5HT2C receptors [1], at 5HT2C receptors [3] (setting [4]) and on 5HT2B receptors were 93%, over 120% and 80%, respectively. This compound displayed an inhibitory constant (Ki) in test [2] of 0.033 µM.

Consider `O=C1C[C@H]2CNCCN2c2cc(Cl)ccc2N1` [Example 41, (4aS)-10-chloro-1,2,3,4,4a,5-hexahydropyrazino[1,2-a][1,5]benzodiazepin-6(7H)-one], for which the half-maximal effective concentration (EC50) stood at 0.002 µM on 5HT2C receptors [1], 0.0008 µM at 5HT2C receptors [3] and 0.006 µM on 5HT2B receptors. Also, the figures for the Emax at 5HT2C receptors [1], on 5HT2C receptors [3] (setting [4]) and at 5HT2B receptors were 99.5%, over 120% and 110%, respectively. The inhibition constant (Ki) in test [2] was determined as 0.005 µM.

Regarding `O=C1CC2CNCCN2c2c(F)cccc2N1` (stereo not drawn) [Example 33, 11-fluoro-1,2,3,4,4a,5-hexahydropyrazino[1,2-a][1,5]benzodiazepin-6(7H)-one], the EC50 was 0.0142 µM on 5HT2C receptors [1], 0.01 µM at 5HT2C receptors [3] and over 10 µM on 5HT2B receptors. Besides, the Emax was 98% at 5HT2C receptors [1] and over 120% on 5HT2C receptors [3] (setting [4]). This compound also showed an inhibitory constant (Ki) in test [2] of 0.042 µM.

As for `Cc1cccc2c1NC(=O)CC1CNCCN21` (stereo not drawn) [Example 40, 8-methyl-1,2,3,4,4a,5-hexahydropyrazino[1,2-a][1,5]benzodiazepin-6(7H)-one], the EC50 at 5HT2C receptors [1] is 0.0068 µM; on 5HT2C receptors [3], 0.005 µM; on 5HT2B receptors, over 10 µM. Also, the Emax at 5HT2C receptors [1] stood at 89.5%; on 5HT2C receptors [3] (setting [4]) it was 110%. The Ki in test [2] turned out to be 0.035 µM.

Turning to `O=C1CC2CNCCN2c2cc(/C=C/c3cccc(Cl)c3)ccc2N1` (stereo not drawn) [Example 25, 10-[(E)-2-(3-chlorophenyl)vinyl]-1,2,3,4,4a,5-hexahydropyrazino[1,2-a][1,5]benzodiazepin-6(7H)-one], on 5HT2C receptors [1], the EC50 was 0.0145 µM and the Emax is 101%. This compound also yielded an inhibition constant (Ki) in test [2] of 0.0014 µM.

In the case of `c1ccc2c(c1)NCCC1CNCCN21` (stereo not drawn) [Example 17, 1,2,3,4,4a,5,6,7-octahydropyrazino[1,2-a][1,5]benzodiazepine], at 5HT2C receptors [1], the EC50 was 0.073 µM and the Emax was found to be 111%. In test [2], this compound had a Ki of 0.14 µM.

For `Clc1cccc(CN2CCC3CNCCN3c3ccccc32)c1` (stereo not drawn) [Example 22, 7-(3-chlorobenzyl)-1,2,3,4,4a,5,6,7-octahydropyrazino[1,2-a][1,5]benzodiazepine], on 5HT2C receptors [1], the half-maximal effective concentration (EC50) was 0.0697 µM and the Emax came out at 80.5%. This compound also showed an inhibition constant (Ki) in test [2] of 0.085 µM.

The values above are taken from patent publication US8546377B2 (AbbVie Inc., priority 2009, dated 2013).
